Measured values: patent publication US12012411B2, “Viral replication inhibitors” (Katholieke Universiteit Leuven, priority 2011, dated 2024)
Read-outs that look alike come from different tables or passages of the source.

How the values were obtained:
[1] = in vitro; details: African green monkey; for CC50 at 4 days: uninfected quiescent Vero-B cells
[2] = system: DENV-2 NGC; test: Antiviral activity against DENV-2 NGC in Vero-B cells (viral RNA load by RT-qPCR); format: cell-based, Dengue virus; details: DENV-2 in Vero-B cells, inhibition of viral RNA replication by 50% (Table 3)
[3] = system: DENV-1 Djibouti strain D1/H/IMTSSA/98/606; test: Antiviral activity against DENV-1 in Vero-B cells (viral RNA load by RT-qPCR); format: cell-based, Dengue virus
[4] = system: DENV-3 strain H87 prototype; test: Antiviral activity against DENV-3 in Vero-B cells (viral RNA load by RT-qPCR); format: cell-based, Dengue virus
[5] = system: DENV-4 strain Dak HD 34 460; test: Antiviral activity against DENV-4 in Vero-B cells (viral RNA load by RT-qPCR); format: cell-based, Dengue virus; details: Dengue virus, DENV4, Vero B

| Structure (SMILES) | CC50 at 4 days [1] [µM] | EC50 ([2]; Dengue virus, DENV2, Vero B) [µM] | EC50 ([4]; Dengue virus, DENV3, Vero B) [µM] | other results |
| --- | --- | --- | --- | --- |
| COc1cncc(NC(C(=O)c2c[nH]c3ccccc23)c2ccccc2)c1 (single isomer, unassigned) [CPD-299] | 62 | – | – | EC50 [2]: 0.02 µM; EC50 [3]: 0.5 µM; EC50 [4]: 0.78 µM; EC50 [5]: 3.65 µM |
| COc1cc(NC(C(=O)c2c[nH]c3ccccc23)c2ccccc2)ccc1Cl (stereo not shown) [CPD-004] | 11 | 0.19 | 8.55 | EC50 ([3]; Dengue virus, DENV1, Vero B): 4.53 µM |
| COc1cccc(NC(C(=O)c2c[nH]c3ccccc23)c2cncnc2)c1 (stereo not shown) [CPD-029] | 65 | 0.84 | – | EC50 ([3]; Dengue virus, DENV1, Vero B): 2.82 µM |
| COc1cc(NC(C(=O)c2c[nH]c3ccccc23)c2ccccc2)nc(OC)n1 (stereo not shown) [CPD-087] | > 128 | 0.8 | – | EC50 ([3]; Dengue virus, DENV1, Vero B): 6.05 µM |
| COc1cccc(NC(C(=O)c2c[nH]c3ccc(OC)cc23)c2ccccc2)c1 (stereo not shown) [CPD-092] | 19 | 0.1 | 0.93 | EC50 [5]: 6.73 µM |
| COc1cccc(NC(C(=O)c2c[nH]c3cc(Cl)ccc23)c2cc(C)on2)c1 (stereo not shown) [CPD-116] | 13 | 0.14 | 9.3 | EC50 ([3]; Dengue virus, DENV1, Vero B): 4.19 µM |
| COc1cccc(NC(C(=O)c2c[nH]c3c(Cl)cccc23)c2ccc(C#N)cc2)c1 (stereo not shown) [CPD-120] | 11 | 0.02 | 5.18 | EC50 ([3]; Dengue virus, DENV1, Vero B): 2.31 µM |
| COc1cccc(NC(C(=O)c2c[nH]c3cc(C)ccc23)c2ccccc2)c1 (stereo not shown) [CPD-122] | 16 | 0.02 | 8.25 | EC50 ([3]; Dengue virus, DENV1, Vero B): 3.64 µM |
| COc1cccc(NC(C(=O)c2cn(CCCO)c3ccccc23)c2ccccc2)c1 (stereo not shown) [CPD-128] | – | 0.56 | 18.4 | CC50 [1]: 63 µM; EC50 ([3]; Dengue virus, DENV1, Vero B): 7.5 µM |
| COc1cccc(NC(C(=O)c2c[nH]c3ccccc23)c2c(F)cc(C#N)cc2F)c1 (stereo not shown) [CPD-133] | 19 | 0.04 | 4.17 | EC50 ([3]; Dengue virus, DENV1, Vero B): 2.25 µM |
| COC(=O)c1ccc2[nH]cc(C(=O)C(Nc3cccc(OC)c3)c3ccccc3)c2c1 (stereo not shown) [CPD-142] | 13 | 0.1 | 3.97 | EC50 ([3]; Dengue virus, DENV1, Vero B): 1.71 µM |
| COc1cccc(NC(C(=O)c2c[nH]c3ccccc23)c2ccccc2F)c1 (stereo not shown) [CPD-144] | 20 | 0.06 | 3.08 | EC50 ([3]; Dengue virus, DENV1, Vero B): 2.89 µM |
| COc1cccc(NC(C(=O)c2c[nH]c3c(F)cccc23)c2ccc(OC)nc2)c1 (stereo not shown) [CPD-155] | 15 | 0.08 | – | EC50 ([3]; Dengue virus, DENV1, Vero B): 2.94 µM |
| CCOc1ccc(NC(C(=O)c2c[nH]c3ccccc23)c2ccccc2)cc1OC (stereo not shown) [CPD-173] | 69 | 0.02 | – | EC50 ([3]; Dengue virus, DENV1, Vero B): 30.7 µM |
| COc1cccc(NC(C(=O)c2c[nH]c3ncccc23)c2ccccc2)c1 (stereo not shown) [CPD-194] | 61 | 0.94 | – | EC50 [5]: 18.7 µM |
| COc1cccc(NC(C(=O)c2cn(S(=O)(=O)C3CCOC3)c3ccccc23)c2ccccc2)c1 (stereo not shown) [CPD-208] | > 102 | 0.37 | 6.65 | EC50 [5]: 6.95 µM |
| COc1cc(NC(C(=O)c2cn(CCCO)c3ccccc23)c2ccccc2)cc(OC)c1 (stereo not shown) [CPD-210] | – | 0.2 | – | CC50 [1]: 13 µM; EC50 ([3]; Dengue virus, DENV1, Vero B): 1.03 µM |
| COc1cccc(NC(C(=O)c2cn(S(C)(=O)=O)c3ccc(F)cc23)c2ccccc2)c1 (stereo not shown) [CPD-212] | > 110 | 0.42 | 5.9 | EC50 [5]: 2.64 µM |
| COc1cccc(NC(C(=O)c2c[nH]c3ccc(CO)cc23)c2ccccc2)c1 (stereo not shown) [CPD-219] | 86 | 0.52 | 22.1 | – |

| Structure (SMILES) | CC50 at 4 days [1] [µM] | EC50 ([2]; Dengue virus, DENV2, Vero B) [µM] | EC50 ([4]; Dengue virus, DENV3, Vero B) [µM] | other results |
| --- | --- | --- | --- | --- |
| COc1cccc(NC(C(=O)c2c[nH]c3nc(C)ccc23)c2ccccc2)c1 (stereo not shown) [CPD-225] | > 134 | 0.38 | 2.99 | EC50 [5]: 1.16 µM |
| COc1cccc(NC(C(=O)c2c[nH]c3ncc(F)cc23)c2ccccc2)c1 (stereo not shown) [CPD-227] | > 124 | 0.27 | 2.91 | EC50 [5]: 7.45 µM |
| COc1cccc(NC(C(=O)c2c[nH]c3cc(N4CCOCC4)ccc23)c2ccccc2)c1 (stereo not shown) [CPD-237] | > 113 | 1.35 | – | EC50 [5]: 8.31 µM |
| CCOc1ncc(NC(C(=O)c2c[nH]c3ccccc23)c2ccccc2)cc1OC (stereo not shown) [CPD-258] | 72 | 1.47 | – | EC50 [5]: 9.42 µM |
| COc1cccc(NC(C(=O)c2nn(C)c3ccc(F)cc23)c2ccccc2)c1 (stereo not shown) [CPD-270] | > 128 | 0.13 | 1.87 | EC50 ([3]; Dengue virus, DENV1, Vero B): 1.57 µM |
| COc1cccc(NC(C(=O)c2nn(C)c3ccccc23)c2cnc(OC)cn2)c1 (stereo not shown) [CPD-272] | > 124 | 0.47 | – | – |
| COc1cccc(NC(C(=O)c2c[nH]c3ccccc23)c2cnccn2)c1 (stereo not shown) [CPD-274] | 100 | 0.39 | – | – |
| COc1cccc(NC(C(=O)c2nn(C)c3ccc(C#N)cc23)c2ccccc2)c1 (stereo not shown) [CPD-275] | > 126 | 9.96 | – | – |
| COc1cncc(NC(C(=O)c2nn(C)c3ccccc23)c2ccccc2)n1 (stereo not shown) [CPD-276] | 23 | 2.62 | – | – |
| COc1cncc(NC(C(=O)c2c[nH]c3ccccc23)c2cccnc2)n1 (stereo not shown) [CPD-280] | > 139 | 0.78 | – | – |
| COc1ccc(C(Nc2cncc(OC)n2)C(=O)c2c[nH]c3ccccc23)cn1 (stereo not shown) [CPD-284] | 74 | 0.62 | – | – |
| COc1cccc(NC(C(=O)c2nn(C)c3cc(C#N)ccc23)c2ccccc2)c1 (stereo not shown) [CPD-286] | > 126 | 1.05 | – | – |
| COc1cncc(NC(C(=O)c2c[nH]c3cc(F)ccc23)c2ccccc2)n1 (stereo not shown) [CPD-287] | > 132 | 0.44 | – | – |
| COc1cncc(NC(C(=O)c2c[nH]c3ccccc23)c2cc3ccccn3n2)n1 (stereo not shown) [CPD-290] | > 125 | 0.88 | – | – |
| COc1cccc(NC(C(=O)c2c[nH]c3cc(F)ccc23)c2cnc(OC)cn2)c1 (stereo not shown) [CPD-297] | 22 | 0.03 | 0.57 | EC50 [5]: 6.68 µM |
| COc1cccc(NC(C(=O)c2cccc3[nH]ccc23)c2ccccc2)c1 (stereo not shown) [CPD-302] | 15 | 0.65 | – | – |
| COc1cccc(NC(C(=O)c2nn(CCO)c3ccccc23)c2ccccc2)c1 (stereo not shown) [CPD-303] | – | 0.52 | – | CC50 [1]: 71 µM; EC50 ([3]; Dengue virus, DENV1, Vero B): 3.26 µM |
| COc1cc(CO)cc(NC(C(=O)c2cn(C)c3ccccc23)c2ccccc2)c1 (stereo not shown) [CPD-307] | > 124 | 0.18 | – | EC50 ([3]; Dengue virus, DENV1, Vero B): 2.43 µM; EC50 [5]: 11.5 µM |
| COc1cccc(NC(C(=O)c2c[nH]c3ccccc23)c2cc3n(n2)CCOC3)c1 (stereo not shown) [CPD-311] | 77 | 2.58 | – | – |

| Structure (SMILES) | CC50 at 4 days [1] [µM] | EC50 ([2]; Dengue virus, DENV2, Vero B) [µM] | EC50 ([4]; Dengue virus, DENV3, Vero B) [µM] | other results |
| --- | --- | --- | --- | --- |
| COc1cccc(NC(C(=O)c2c[nH]c3ccccc23)c2cncc(OC)c2)c1 (stereo not shown) [CPD-312] | 69 | 4.67 | – | – |
| COc1cccc(NC(C(=O)c2noc3ccccc23)c2ccccc2)c1 (stereo not shown) [CPD-330] | > 139 | 4.63 | – | – |
| COc1cc(NC(C(=O)c2c[nH]c3c(C)cccc23)c2ccc(F)cc2)cc(OC)c1 (stereo not shown) [CPD-341] | 12 | 0.002 | 0.05 | EC50 [5]: 3.36 µM |
| COc1cc(NC(C(=O)c2c[nH]c3ccccc23)c2cccnc2)cc(OCCO)c1 (stereo not shown) [CPD-343] | > 119 | 0.19 | 3.11 | – |
| COc1cc(CO)cc(NC(C(=O)c2c[nH]c3cc(F)ccc23)c2cccnc2)c1 (stereo not shown) [CPD-344] | 94 | 0.09 | 0.79 | EC50 [5]: 25.9 µM |
| COc1cc(NC(C(=O)c2c[nH]c3ccccc23)c2ccccc2)c(F)c(OC)c1 (stereo not shown) [CPD-345] | 106 | 0.21 | 1.73 | EC50 [5]: 2.94 µM |
| COc1cc(OC)nc(NC(C(=O)c2c[nH]c3ccccc23)c2ccccc2)n1 (stereo not shown) [CPD-347] | 6 | 0.98 | – | – |
| COc1cc(NC(C(=O)c2c[nH]c3ccc(F)cc23)c2ccccc2)cc(OCCO)c1 (stereo not shown) [CPD-355] | 44 | 0.03 | 0.3 | EC50 [5]: 6.17 µM |
| COc1cc(NC(C(=O)c2c[nH]c3ccccc23)c2ccccc2)ccc1F (stereo not shown) [CPD-356] | 13 | 0.12 | – | – |
| COc1cc(NC(C(=O)c2cn(C)c3c(CCO)cccc23)c2ccccc2)cc(OC)c1 (stereo not shown) [CPD-358] | 63 | 0.18 | – | – |
| COc1cc(O)cc(NC(C(=O)c2c[nH]c3ccccc23)c2ccccc2)c1 (stereo not shown) [CPD-359] | 52 | 0.1 | – | EC50 [5]: 5.48 µM |
| COc1cc(NC(C(=O)c2c[nH]c3c(CO)cccc23)c2ccccc2)cc(OC)c1 (stereo not shown) [CPD-362] | 41 | 0.09 | – | – |
| COc1cncc(NC(C(=O)c2c[nH]c3c(CCO)cccc23)c2ccccc2)c1 (stereo not shown) [CPD-364] | 62 | 1.12 | – | – |
| COc1cc(NC(C(=O)c2c[nH]c3c(CCN(C)C)cccc23)c2ccccc2)cc(OC)c1 (stereo not shown) [CPD-365] | 12 | 2.03 | – | – |
| O=C(c1c[nH]c2ccccc12)C(Nc1cccc(O)c1)c1ccccc1 (stereo not shown) [CPD-366] | 78 | 0.26 | – | – |
| CCOC(=O)CCCOc1cc(NC(C(=O)c2c[nH]c3ccccc23)c2ccccc2)cc(OC)c1 (stereo not shown) [CPD-367] | > 103 | 0.04 | – | – |
| COc1cc(NC(C(=O)c2c[nH]c3ccccc23)c2ccc(C)cc2)cc(OCCO)c1 (stereo not shown) [CPD-369] | 11 | 0.01 | – | – |
| COc1cc(NC(C(=O)c2c[nH]c3ccc(CCO)cc23)c2ccccc2)cc(OC)c1 (stereo not shown) [CPD-370] | 66 | 0.06 | – | – |
| COc1cc(NC(C(=O)c2c[nH]c3c(CCO)cccc23)c2ccc(F)cc2)cc(OC)c1 (stereo not shown) [CPD-371] | 12 | 0.03 | – | – |
